Literature values as cited in US20090062369A1, “USE OF SECRETORY PHOSPHOLIPASE A2 (SPLA2) INHIBITORS TO DECREASE SPLA2 LEVELS” (priority 2007, published 2009).

Tested on: sPLA2
Details: cited from earlier work

CCc1c(C(=O)C(N)=O)c2c(OCC(=O)O)cccc2n1Cc1ccccc1 [A-001, ((3-(2-Amino-1,2-dioxoethyl)-2-ethyl-1-(phenylmethyl)-1H-indol-4-yl)oxy)acetic acid]
mode of sPLA2 inhibition: competitively inhibits sPLA2
